From patent publication US12257282B2, “Mixtures and formulations” (CAMURUS AB, priority 2016, dated 2025)
Numbered stars: 1 amine (or outer) side, 2 acyl side, 3 side chain; on linkers, the order of the positions; unused ones are H or OH. Square brackets hold non-standard residues; d marks the D form. Side chains are listed from the residue outwards. Peptide text beside a SMILES is read from it. * marks the point of attachment. Ethylenediamine = C(CN[*:2])N[*:1]; Hyp = O=C(O)[C@@H]1C[C@@H](O)CN1; Phg = N[C@H](C(=O)O)c1ccccc1; CO = O=C([*:1])[*:2]; Bn = c1ccc(C*)cc1

What was measured:
[1] = DTPA solubility in EtOH/PG as a function of ETA/DTPA molar ratio; format: physicochemical
[2] = Octreotide stability in lipid formulations (assay by gradient HPLC-UV after storage); conditions: for effect on octreotide stability compared to the reference formulation (FIG. 7): alkylamine used to solubilize 100 ppm EDTA, alkylamine:EDTA 4:1; for effect on octreotide stability compared to the reference formulation (FIG. 7) / effect on OCT(Cl) stability vs. the reference formulation (FIG. 6): up to two months; for effect on OCT(Cl) stability vs. the reference formulation (FIG. 6): additive mixtures in EtOH/PG filtered to remove non-dissolved particles, 5 ppm Fe3+
[3] = placebo SPC/GDO 50/50 and 35/65 with EtOH; 100 ppm EDTA; with or without 5 ppm Fe3+; 60° C./ambient RH and 40° C./75% RH
Procedure: Oxygen concentration in the vial headspace was measured using a PC-controlled PreSens Microx TX3 micro fiber optic oxygen transmitter equipped with a needle-type optical oxygen microsensor (NTH, 140 μm flat broken tip). Measurements were performed by penetrating the oxygen microsensor through the vial rubber stopper into the vial headspace and measuring the oxygen concentration until a stable readout was obtained (about 1 min).
Some formulations also contained 5 ppm Fe^3+ to enhance the oxidative stress conditions (Table 10).

[4] = 2.00 wt % SOM(Cl) in SPC/GDO/EtOH/PG; 100 ppm EDTA with ETA; 40° C./75% RH and 25° C./60% RH, up to three months
[5] = cited from earlier work
SSTR1-SSTRS = conditions: cited from earlier work
[6] = single subcutaneous dose, human plasma; cited from earlier work
[7] = 0.38 wt % EDTA in EtOH/PG (1/1 wt/wt)

## O=C(O)CN(CCN(CC(=O)O)CC(=O)O)CCN(CC(=O)O)CC(=O)O [DTPA, Diethylenetriaminepentaacetic (pentetic) acid]
[1]; 0.08 wt % DTPA
  DTPA solubility in EtOH/PG without using ETA: not soluble
[1]; 0.08 wt % DTPA in EtOH/PG (50/50 w/w)
  required minimum amount of ETA needed to solubilize DTPA: about 4.3 mol of ETA per 1 mol of DTPA

## OCCNCCO [DiETA, Diethanolamine]
[2]; 40° C./75% RH
  effect on octreotide stability compared to the reference formulation (FIG. 7): enhanced the peptide stability to a similar high degree

## O.O.O=C(O)CN(CCN(CC(=O)O)CC(=O)O)CC(=O)O.[Na].[Na] [EDTA(Na), Ethylenediaminetetraacetic acid disodium dihydrate]
[2]; 40° C./75% RH
  effect on OCT(Cl) stability vs. the reference formulation (FIG. 6): negative effect

## O=C(O)CN(CCN(CC(=O)O)CC(=O)O)CC(=O)O [EDTA, Ethylenediaminetetraacetic (edetic) acid]
[3]
  effect on consumption of headspace oxygen (lipid oxidation, FIG. 15-18): drastically reduce consumption of oxygen
[4]
  effect on SOM stability (SOM assay, FIG. 9): dramatically enhanced the peptide stability
[2]; 2.27 wt % OCT(Cl) in SPC/GDO/EtOH/PG, 0-750 ppm EDTA with ETA, 40° C./75% RH, 0, 1, 2 months, air headspace
  effect on octreotide stability vs. reference formulation (FIG. 2): dramatically enhanced the peptide stability
[2]; 2.27 wt % OCT(Cl) in SPC/GDO/EtOH/PG, 40° C./75% RH
  EDTA concentration interval of maximum stabilization effect: 50-250 ppm
[2]; 2.34 wt % OCT(Cl) in SPC/GDO/EtOH/PG, 100 ppm EDTA with 100 ppm ETA vs none, […], up to three months, air headspace
  effect on octreotide stability (octreotide assay, FIG. 1): dramatically enhanced the peptide stability
[2]; 100 ppm EDTA with ETA, pre-filled glass syringes, 25° C./60% RH, up to twelve months
  effect on long-term octreotide stability (FIG. 3): significantly enhanced the long-term peptide stability
[2]; 40° C./75% RH
  effect on OCT(Cl) stability vs. the reference formulation (FIG. 6): negative effect

## NCCO [ETA, Ethanolamine]
[2]; 40° C./75% RH
  effect on octreotide stability compared to the reference formulation (FIG. 7): enhanced the peptide stability to a similar high degree

## C[C@@H](O)[C@@H]1NC(=O)[C@H](CCCCN)NC(=O)[C@@H](Cc2c[nH]c3ccccc23)NC(=O)[C@H](Cc2ccccc2)NC(=O)[C@@H](NC(=O)[C@H](N)Cc2ccccc2)CSSC[C@@H](C(=O)N[C@H](CO)[C@@H](C)O)NC1=O [Octreotide, D-Phe-Cys-Phe-D-Trp-Lys-Thr-Cys-Thr-ol (2-7 disulphide bridge)]
[5]; in vivo
  terminal half-life: around 1.7 hours
SSTR1-SSTRS
  selectivity for SSTR2 and SSTRS: high selectivity

## NCCCC[C@@H]1NC(=O)[C@@H](Cc2c[nH]c3ccccc23)NC(=O)[C@H](c2ccccc2)NC(=O)[C@@H]2C[C@@H](OC(=O)NCCN)CN2C(=O)[C@H](Cc2ccccc2)NC(=O)[C@H](Cc2ccc(OCc3ccccc3)cc2)NC1=O [pasireotide] (cyclo([Hyp]([CO-Ethylenediamine])[Phg][dW]KY(Bn)F))
[6]
  initial half-life following the peak: 2 to 3 h

## NC(CO)CO [serinol]
[7]
  required minimum amount of alkylamine needed to solubilize EDTA: about 4 mol per 1 mol of EDTA

## Ala-Gly-Cys-Lys-Asn-Phe-Phe-Trp-Lys-Thr-Phe-Thr-Ser-Cys [SST-14]
[5]; natural SST-14
  biological half-life: 1-3 minutes
SSTR1-SSTRS; SSTR1-SSTRS
  affinity of the five SSTR types: equally high affinity
